Molecules are shown by their SMILES.

The test system of the assay is MV-4-11 cells. The assay can be described thus: Gene expression microarray analysis (Affymetrix PrimeView) and GSEA. Details: RFU PODN (11730768_x_at) / Fold change /veh PODN (11730768_x_at) / RFU LINC00158 (11744669_a_at) / Fold change /veh LINC00158 (11744669_a_at) / RFU DUSP10 (11751237_a_at) / Fold change /veh DUSP10 (11751237_a_at) / RFU ID3 (11757404_x_at) / Fold change /veh ID3 (11757404_x_at) / RFU PLEKHG5 (11737974_s_at) / Fold change /veh PLEKHG5 (11737974_s_at) / RFU LRRC4B (11730491_at) / Fold change /veh LRRC4B (11730491_at) / RFU GIMAP4 (11747438_a_at) / Fold change /veh GIMAP4 (11747438_a_at) / RFU KRT8 (11758183_x_at) / Fold change /veh KRT8 (11758183_x_at) / RFU CNN1 (11734310_a_at) / Fold change /veh CNN1 (11734310_a_at) / RFU VPS37D (11726825_at) / Fold change /veh VPS37D (11726825_at) / RFU C10orf10 (11716522_x_at) / Fold change /veh C10orf10 (11716522_x_at) / RFU KIR2DL2 /// KIR2DL4 /// KIR2DL5A /// KIR2DL5B /// KIR2DS1 /// KIR2DS2 /// KIR2DS3 /// KIR2DS4 /// KIR3DL3 /// KIR3DL3 /// KIR3DS1 (11738374_at) / Fold change /veh KIR2DL2 /// KIR2DL4 /// KIR2DL5A /// KIR2DL5B /// KIR2DS1 /// KIR2DS2 /// KIR2DS3 /// KIR2DS4 /// KIR3DL3 /// KIR3DL3 /// KIR3DS1 (11738374_at) / RFU C1QL1 (11718748_at) / Fold change /veh C1QL1 (11718748_at) / RFU TMPRSS4 (11747572_a_at) / Fold change /veh TMPRSS4 (11747572_a_at) / RFU HAMP (11756126_x_at) / Fold change /veh HAMP (11756126_x_at) / RFU RNFT2 (11725882_a_at) / Fold change /veh RNFT2 (11725882_a_at) / RFU NR4A2 (11747474_a_at) / Fold change /veh NR4A2 (11747474_a_at) / RFU ABCC12 (11746883_a_at) / Fold change /veh ABCC12 (11746883_a_at) / RFU TMEM136 (11760407_x_at) / Fold change /veh TMEM136 (11760407_x_at) / RFU CLDN22 /// WWC2 (11732394_at) / Fold change /veh CLDN22 /// WWC2 (11732394_at) / RFU HLA-DPB1 (11760878_x_at) / Fold change /veh HLA-DPB1 (11760878_x_at) / RFU SPINT1 (11716480_a_at) / Fold change /veh SPINT1 (11716480_a_at) / RFU GAP43 (11754022_s_at) / Fold change /veh GAP43 (11754022_s_at) / RFU A4GNT (11735810_at) / Fold change /veh A4GNT (11735810_at) / RFU PRB3 (11715151_x_at) / Fold change /veh PRB3 (11715151_x_at) / RFU TUBB4B (11761932_at) / Fold change /veh TUBB4B (11761932_at) / RFU CAPN14 (11732068_a_at) / Fold change /veh CAPN14 (11732068_a_at) / RFU TMCC2 (11721928_a_at) / Fold change /veh TMCC2 (11721928_a_at) / RFU IRGQ (11745062_a_at) / Fold change /veh IRGQ (11745062_a_at) / RFU FAM174B (11720279_a_at) / Fold change /veh FAM174B (11720279_a_at) / RFU TMPRSS4 (11748680_a_at) / Fold change /veh TMPRSS4 (11748680_a_at) / RFU FAM212B (11763350_a_at) / Fold change /veh FAM212B (11763350_a_at) / RFU PLEKHG5 (11743358_a_at) / Fold change /veh PLEKHG5 (11743358_a_at) / RFU ZSCAN30 (11745921_a_at) / Fold change /veh ZSCAN30 (11745921_a_at) / RFU CMKLR1 (11741424_a_at) / Fold change /veh CMKLR1 (11741424_a_at) / RFU LOC101060620 /// MAPK8IP1 (11723275_at) / Fold change /veh LOC101060620 /// MAPK8IP1 (11723275_at) / RFU SPTSSB (11747773_x_at) / Fold change /veh SPTSSB (11747773_x_at) / RFU PRSS12 (11739890_at) / Fold change /veh PRSS12 (11739890_at) / RFU BIN1 (11741810_x_at) / Fold change /veh BIN1 (11741810_x_at) / RFU WNT11 (11732464_a_at) / Fold change /veh WNT11 (11732464_a_at) / RFU C10orf10 (11716521_a_at) / Fold change /veh C10orf10 (11716521_a_at) / RFU C5orf56 (11738089_at) / Fold change /veh C5orf56 (11738089_at) / RFU CYB561 (11721691_x_at) / Fold change /veh CYB561 (11721691_x_at) / RFU ANKRD19P (11752326_a_at) / Fold change /veh ANKRD19P (11752326_a_at) / RFU OR2T12 /// OR2T33 /// OR2T8 (11738714_s_at) / Fold change /veh OR2T12 /// OR2T33 /// OR2T8 (11738714_s_at) / RFU VCAN (11748164_a_at) / Fold change /veh VCAN (11748164_a_at) / RFU JSRP1 (11732532_at) / Fold change /veh JSRP1 (11732532_at) / RFU KRTAP10-11 (11738290_x_at) / Fold change /veh KRTAP10-11 (11738290_x_at) / RFU MYO3A (11730013_a_at) / Fold change /veh MYO3A (11730013_a_at) / RFU EBF3 (11725865_a_at) / Fold change /veh EBF3 (11725865_a_at) / RFU CAMK2N1 (11719241_x_at) / Fold change /veh CAMK2N1 (11719241_x_at) / RFU C5orf56 (11738088_a_at) / Fold change /veh C5orf56 (11738088_a_at) / RFU OLFML3 (11715873_a_at) / Fold change /veh OLFML3 (11715873_a_at) / RFU LOC100653217 /// NTM (11731650_a_at) / Fold change /veh LOC100653217 /// NTM (11731650_a_at) / RFU MAPK11 (11762145_a_at) / Fold change /veh MAPK11 (11762145_a_at) / RFU FIZ1 (11724087_x_at) / Fold change /veh FIZ1 (11724087_x_at) / RFU OASL (11726364_x_at) / Fold change /veh OASL (11726364_x_at) / RFU SOX15 (11748057_x_at) / Fold change /veh SOX15 (11748057_x_at) / RFU CD79A (11719716_a_at) / Fold change /veh CD79A (11719716_a_at) / RFU HIST1H1D (11736915_at) / Fold change /veh HIST1H1D (11736915_at) / RFU CASKIN2 (11723855_a_at) / Fold change /veh CASKIN2 (11723855_a_at) / RFU LOC730098 (11760151_x_at) / Fold change /veh LOC730098 (11760151_x_at) / RFU OR4N2 (11742367_at) / Fold change /veh OR4N2 (11742367_at) / RFU PRRT2 (11749266_a_at) / Fold change /veh PRRT2 (11749266_a_at) / RFU SNX32 (11753110_a_at) / Fold change /veh SNX32 (11753110_a_at) / RFU CDHR5 (11726645_a_at) / Fold change /veh CDHR5 (11726645_a_at) / RFU RCAN1 (11760418_a_at) / Fold change /veh RCAN1 (11760418_a_at) / RFU FAM167A (11723789_a_at) / Fold change /veh FAM167A (11723789_a_at) / RFU FAM26E (11764081_at) / Fold change /veh FAM26E (11764081_at) / RFU ISYNA1 (11749810_s_at) / Fold change /veh ISYNA1 (11749810_s_at) / RFU ACY1 (11761880_at) / Fold change /veh ACY1 (11761880_at) / RFU 11764098_at / Fold change /veh 11764098_at / RFU SAMD14 (11745864_x_at) / Fold change /veh SAMD14 (11745864_x_at) / RFU NPB (11741838_a_at) / Fold change /veh NPB (11741838_a_at) / RFU TMPRSS6 (11731388_a_at) / Fold change /veh TMPRSS6 (11731388_a_at) / RFU KRTAP10-2 (11738614_at) / Fold change /veh KRTAP10-2 (11738614_at) / RFU ARHGAP8 /// PRR5-ARHGAP8 (11727945_x_at) / Fold change /veh ARHGAP8 /// PRR5-ARHGAP8 (11727945_x_at) / RFU KRTAP5-7 /// NADSYN1 (11734609_at) / Fold change /veh KRTAP5-7 /// NADSYN1 (11734609_at) / RFU RASL12 (11751679_a_at) / Fold change /veh RASL12 (11751679_a_at) / RFU CDKN2B (11736163_a_at) / Fold change /veh CDKN2B (11736163_a_at) / RFU PRF1 (11729649_at) / Fold change /veh PRF1 (11729649_at) / RFU, ZNF638 /// ZNF638-IT1 / Fold change vs veh, ZNF638 /// ZNF638-IT1 / RFU, PANK3 / Fold change vs veh, PANK3 / RFU, SH3YL1 / Fold change vs veh, SH3YL1 / RFU, ZEB2 / Fold change vs veh, ZEB2 / RFU, NRIP1 / Fold change vs veh, NRIP1 / RFU, PTTG1IP / Fold change vs veh, PTTG1IP / RFU, CAPN2 / Fold change vs veh, CAPN2 / RFU, MED14 / Fold change vs veh, MED14 / RFU, SNORA58 / Fold change vs veh, SNORA58 / RFU, C1orf63 / Fold change vs veh, C1orf63 / RFU, LRRFIP1 / Fold change vs veh, LRRFIP1 / RFU, NDUFAF7 / Fold change vs veh, NDUFAF7 / RFU, SLC12A2 / Fold change vs veh, SLC12A2 / RFU, IBTK / Fold change vs veh, IBTK / RFU, ESF1 / Fold change vs veh, ESF1 / Fold change vs veh, TMEM50B / RFU, TAOK1 / Fold change vs veh, TAOK1 / RFU, ACBD3 / Fold change vs veh, ACBD3 / RFU, TMA16 / Fold change vs veh, TMA16 / RFU, RWDD3 / Fold change vs veh, RWDD3 / RFU, BCAT1 / Fold change vs veh, BCAT1 / RFU, EDEM3 / Fold change vs veh, EDEM3 / RFU, TMEM33 / Fold change vs veh, TMEM33 / RFU, WDR75 / Fold change vs veh, WDR75 / RFU, AHCTF1 / Fold change vs veh, AHCTF1 / RFU, TFRC / Fold change vs veh, TFRC / RFU, ZDHHC17 / Fold change vs veh, ZDHHC17 / RFU, NOM1 / Fold change vs veh, NOM1 / RFU, ARL8B / Fold change vs veh, ARL8B / RFU, ZBTB11 / Fold change vs veh, ZBTB11 / RFU, TAMM41 / Fold change vs veh, TAMM41 / RFU, KIAA1704 /// LOC100996395 / Fold change vs veh, KIAA1704 /// LOC100996395 / RFU, ING1 / Fold change vs veh, ING1 / RFU, TRMT61B / Fold change vs veh, TRMT61B / RFU, FUBP3 / Fold change vs veh, FUBP3 / RFU, TP53 / Fold change vs veh, TP53 / RFU, TNKS2 / Fold change vs veh, TNKS2 / RFU, ZFP14 / Fold change vs veh, ZFP14 / RFU, ACTR2 / Fold change vs veh, ACTR2 / RFU, PPP3R1 / Fold change vs veh, PPP3R1 / RFU, PIK3R1 / Fold change vs veh, PIK3R1 / RFU, HNRNPA1 / Fold change vs veh, HNRNPA1 / RFU, RNF170 / Fold change vs veh, RNF170 / RFU, ZNF28 / Fold change vs veh, ZNF28 / RFU, RNGTT / Fold change vs veh, RNGTT / RFU, OGT / Fold change vs veh, OGT / RFU, BRD1 / Fold change vs veh, BRD1 / RFU, MARS / Fold change vs veh, MARS / RFU, ZNF655 / Fold change vs veh, ZNF655 / RFU, FAHD1 / Fold change vs veh, FAHD1 / RFU, BDP1 / Fold change vs veh, BDP1 / RFU, LRRCC1 / Fold change vs veh, LRRCC1 / RFU, ARID1A / Fold change vs veh, ARID1A / RFU, ZNF146 / Fold change vs veh, ZNF146 / RFU, ZNF330 / Fold change vs veh, ZNF330 / RFU, GPN3 / Fold change vs veh, GPN3 / RFU, C9orf123 / Fold change vs veh, C9orf123 / RFU, N4BP2L2 / Fold change vs veh, N4BP2L2 / RFU, ARFIP1 / Fold change vs veh, ARFIP1 / RFU, FAM179B / Fold change vs veh, FAM179B / RFU, BCL10 / Fold change vs veh, BCL10 / RFU, UHRF1BP1L / Fold change vs veh, UHRF1BP1L / RFU, BET1 / Fold change vs veh, BET1 / RFU, CNOT2 / Fold change vs veh, CNOT2 / RFU, ZNF268 / Fold change vs veh, ZNF268 / Fold change vs veh, ZNF507 / RFU, DGCR2 / Fold change vs veh, DGCR2 / RFU, WDSUB1 / Fold change vs veh, WDSUB1 / Fold change vs veh, HSP90B1 /// MIR3652 / RFU, ADSS / Fold change vs veh, ADSS / RFU, GK / Fold change vs veh, GK / RFU, ZNF148 / Fold change vs veh, ZNF148 / RFU, TAF9 / Fold change vs veh, TAF9 / RFU, SLC1A5 / Fold change vs veh, SLC1A5 / RFU, SLMO2 / Fold change vs veh, SLMO2 / RFU, ABCC4 / Fold change vs veh, ABCC4 / RFU, LOC101060439 /// RAP1B / Fold change vs veh, LOC101060439 /// RAP1B / RFU, RFX7 / Fold change vs veh, RFX7 / RFU, GTPBP10 / Fold change vs veh, GTPBP10 / RFU, CNEP1R1 / Fold change vs veh, CNEP1R1 / RFU, BIVM-ERCC5 /// ERCC5 / Fold change vs veh, BIVM-ERCC5 /// ERCC5 / RFU, ILF3 / Fold change vs veh, ILF3 / RFU 11762660_at / Fold change /veh 11762660_at / RFU VCAN (11757783_s_at) / Fold change /veh VCAN (11757783_s_at) / RFU DDX43 (11728927_at) / Fold change /veh DDX43 (11728927_at) / RFU KRT8 (11758188_x_at) / Fold change /veh KRT8 (11758188_x_at) / RFU NKD1 (11759106_at) / Fold change /veh NKD1 (11759106_at) / RFU SRD5A1 (11742802_a_at) / Fold change /veh SRD5A1 (11742802_a_at) / RFU TPSAB1 /// TPSB2 (11721975_s_at) / Fold change /veh TPSAB1 /// TPSB2 (11721975_s_at) / RFU GSTM3 (11746129_a_at) / Fold change /veh GSTM3 (11746129_a_at) / RFU IL23R (11737362_x_at) / Fold change /veh IL23R (11737362_x_at) / RFU TMEM51 (11727254_a_at) / Fold change /veh TMEM51 (11727254_a_at) / RFU PIWIL2 (11732686_x_at) / Fold change /veh PIWIL2 (11732686_x_at) / RFU ORM1 (11744905_x_at) / Fold change /veh ORM1 (11744905_x_at) / RFU CCDC152 (11743942_at) / Fold change /veh CCDC152 (11743942_at) / RFU ECM1 (11717891_a_at) / Fold change /veh ECM1 (11717891_a_at) / RFU IL23R (11748794_a_at) / Fold change /veh IL23R (11748794_a_at) / RFU TNFAIP8L3 (11732012_x_at) / Fold change /veh TNFAIP8L3 (11732012_x_at) / RFU MBOAT4 (11741988_at) / Fold change /veh MBOAT4 (11741988_at) / RFU 11764193_at / Fold change /veh 11764193_at / RFU TMEM53 (11763286_at) / Fold change /veh TMEM53 (11763286_at) / RFU MAGEB2 (11727129_at) / Fold change /veh MAGEB2 (11727129_at) / RFU TMEM200A (11744735_a_at) / Fold change /veh TMEM200A (11744735_a_at) / RFU CCDC152 (11751479_a_at) / Fold change /veh CCDC152 (11751479_a_at) / RFU FAM211A (11726209_a_at) / Fold change /veh FAM211A (11726209_a_at) / RFU RGS16 (11746705_a_at) / Fold change /veh RGS16 (11746705_a_at) / RFU VCAN (11755009_s_at) / Fold change /veh VCAN (11755009_s_at) / RFU RHOB (11743442_s_at) / Fold change /veh RHOB (11743442_s_at) / RFU RGS16 (11720943_a_at) / Fold change /veh RGS16 (11720943_a_at) / RFU RGS16 (11720944_at) / Fold change /veh RGS16 (11720944_at) / RFU, VPS4B / Fold change vs veh, VPS4B / RFU, CREB1 / Fold change vs veh, CREB1 / RFU, DNAJC13 / Fold change vs veh, DNAJC13 / RFU, GNAQ / Fold change vs veh, GNAQ / RFU, CDK5R1 / Fold change vs veh, CDK5R1 / RFU, ZRANB3 / Fold change vs veh, ZRANB3 / RFU, CUL4A / Fold change vs veh, CUL4A / RFU, CCNY / Fold change vs veh, CCNY / RFU, UFL1 / Fold change vs veh, UFL1 / RFU, COG3 / Fold change vs veh, COG3 / RFU, DIAPH2 / Fold change vs veh, DIAPH2 / RFU, SKA2 / Fold change vs veh, SKA2 / RFU, AFF3 / Fold change vs veh, AFF3 / RFU, LMF1 / Fold change vs veh, LMF1 / RFU, IPO11 / Fold change vs veh, IPO11 / RFU, DFFB / Fold change vs veh, DFFB / RFU, FOXP1 / Fold change vs veh, FOXP1 / RFU, CARD8 / Fold change vs veh, CARD8 / RFU, STRN3 / Fold change vs veh, STRN3 / RFU, ADK / Fold change vs veh, ADK / RFU, RASSF2 / Fold change vs veh, RASSF2 / RFU, WIPF1 / Fold change vs veh, WIPF1 / RFU, LARP1B / Fold change vs veh, LARP1B / RFU, RASA1 / Fold change vs veh, RASA1 / RFU, RB1 / Fold change vs veh, RB1 / RFU, PPFIA1 / Fold change vs veh, PPFIA1 / RFU, MAT2A / Fold change vs veh, MAT2A / RFU, CCT5 / Fold change vs veh, CCT5 / RFU, WDR92 / Fold change vs veh, WDR92 / RFU, CUX1 / Fold change vs veh, CUX1 / RFU, TTC7A / Fold change vs veh, TTC7A / RFU, TMEM135 / Fold change vs veh, TMEM135 / RFU, DEPTOR / Fold change vs veh, DEPTOR / RFU, CPM / Fold change vs veh, CPM / RFU, DNAJB6 / Fold change vs veh, DNAJB6 / RFU, CACNA2D3 / Fold change vs veh, CACNA2D3 / RFU, DTX4 / Fold change vs veh, DTX4 / RFU, TFCP2 / Fold change vs veh, TFCP2 / RFU, GMCL1 /// GMCL1P1 / Fold change vs veh, GMCL1 /// GMCL1P1 / RFU, AEBP2 / Fold change vs veh, AEBP2 / RFU, SNHG1 /// SNORD22 /// SNORD25 /// SNORD26 /// SNORD27 /// SNORD28 /// SNORD29 /// SNORD31 / Fold change vs veh, SNHG1 /// SNORD22 /// SNORD25 /// SNORD26 /// SNORD27 /// SNORD28 /// SNORD29 /// SNORD31 / Fold change (Aza/veh), C12orf56 (ProbeSet 11735607_a_at) / Fold change (ACY-1035/veh), C12orf56 (ProbeSet 11735607_a_at) / Fold change (Aza/veh), FGFR1OP (ProbeSet 11751329_s_at) / Fold change (ACY-1035/veh), FGFR1OP (ProbeSet 11751329_s_at) / Fold change (Aza/veh), VPS36 (ProbeSet 11739960_a_at) / Fold change (ACY-1035/veh), VPS36 (ProbeSet 11739960_a_at) / RFU SYPL1 (11715823_x_at) / Fold change /veh SYPL1 (11715823_x_at) / RFU IGFBP7 (11715501_s_at) / Fold change /veh IGFBP7 (11715501_s_at) / RFU REEP3 (11722064_at) / Fold change /veh REEP3 (11722064_at) / RFU IGLL1 (11728026_x_at) / Fold change /veh IGLL1 (11728026_x_at): dose or concentration left out as unconfirmed. In kind it is cell-based, human. The settings on record: MV-4-11 cells, 48 hours.

As to `Nc1ccc(-c2cccs2)cc1NC(=O)c1ccc2c(c1)cc(C1CC1)n2CCN1CCOCC1` [ACY-1035], the “RFU PRRT2 (11749266_a_at)” value amounted to 47.30 RFU.

The values are drawn from publication PMC5218480 (PLoS ONE, 2017).
